Results from the NIST ThermoML archive (doi:10.1021/je400980w).
Numbers after ± are expanded uncertainties.

Details: Liquid

SMILES | vapor or sublimation pressure (420.46 K) [kPa] | vapor or sublimation pressure (431.49 K) [kPa] | vapor or sublimation pressure (439.8 K) [kPa] | vapor or sublimation pressure (420.74 K) [kPa] | vapor or sublimation pressure (432.29 K) [kPa] | vapor or sublimation pressure (440.15 K) [kPa]
CCC(O)CO (stereo unspecified) [1,2-butanediol] | 20 ± 2 | 30 ± 2 | 40 ± 2 | – | – | –
OCCO [1,2-ethanediol] | – | – | – | 20 ± 2 | 30 ± 2 | 40 ± 2
